These are literature values, as cited in patent US8383579B2, “Method for customized dispensing of variable dose drug combination products for individualizing of therapies” (Glaxosmithkline, LLC, priority 2004, dated 2013).

The conditions of data set [1]: Coreg + cimetidine.
For data set [2] the following is noted: Lanoxin + coreg UID.

On to `COc1ccccc1OCCNCC(O)COc1cccc2[nH]c3ccccc3c12` (stereo not drawn) [Coreg], for which, in data set [1], the AUC steady state is 30% and the Cmax result is reported as “no change”.
In the case of `C[C@H]1O[C@@H](O[C@H]2[C@@H](O)C[C@H](O[C@H]3[C@@H](O)C[C@H](O[C@H]4CC[C@@]5(C)[C@H](CC[C@@H]6[C@@H]5C[C@@H](O)[C@]5(C)[C@@H](C7=CC(=O)OC7)CC[C@]65O)C4)O[C@@H]3C)O[C@@H]2C)C[C@H](O)[C@@H]1O` [Lanoxin, digoxin], in data set [2], the peak/trough conc is 14-16%.
